Results on nine compounds are retold here after PMC8537658 (Pharmaceuticals, 2021).

A word on the kon: it is the second-order rate constant of association. By Kd is commonly meant the constant that tells how readily two partners part at equilibrium. Read a low Kd as a tighter complex. For orientation: IC50 means the concentration at which inhibition is half-maximal.

Like-named read-outs stand apart in the source and are kept apart here.

One test concerns the target T1, ACE2 (Homo sapiens, UniProt Q9BYF1).
T1 construct: purchased Sino Biological
Description: Bio-layer interferometry, binding to immobilized ACE2-His. Particulars: for kon: read-out: ACE2 kon; for Kd: 1:1 binding model, KD = kdis/kon; for koff: read-out: ACE2 kdis. (In general: Biolayer interferometry detects binding as a change in optical thickness at a sensor tip.)

Another test deals with SARS-CoV-2 RBD peptide (Severe acute respiratory syndrome coronavirus 2, UniProt P0DTC2). The test can be described thus: biochemical. The test is classed as binding. The settings on record: for koff: read-out: RBD kdis; for kon: read-out: RBD kon.
The next test concerns the target binding of RBD to ACE2 (Severe acute respiratory syndrome coronavirus 2, UniProt P0DTC2). Description: biochemical. Also noted: species or system SARS-CoV-2; human.
The mark [1] stands for this setting: association rate, bio-layer interferometry.
Where [2] appears, read: dissociation rate, bio-layer interferometry.

T1 sequence (Q9BYF1 18-805): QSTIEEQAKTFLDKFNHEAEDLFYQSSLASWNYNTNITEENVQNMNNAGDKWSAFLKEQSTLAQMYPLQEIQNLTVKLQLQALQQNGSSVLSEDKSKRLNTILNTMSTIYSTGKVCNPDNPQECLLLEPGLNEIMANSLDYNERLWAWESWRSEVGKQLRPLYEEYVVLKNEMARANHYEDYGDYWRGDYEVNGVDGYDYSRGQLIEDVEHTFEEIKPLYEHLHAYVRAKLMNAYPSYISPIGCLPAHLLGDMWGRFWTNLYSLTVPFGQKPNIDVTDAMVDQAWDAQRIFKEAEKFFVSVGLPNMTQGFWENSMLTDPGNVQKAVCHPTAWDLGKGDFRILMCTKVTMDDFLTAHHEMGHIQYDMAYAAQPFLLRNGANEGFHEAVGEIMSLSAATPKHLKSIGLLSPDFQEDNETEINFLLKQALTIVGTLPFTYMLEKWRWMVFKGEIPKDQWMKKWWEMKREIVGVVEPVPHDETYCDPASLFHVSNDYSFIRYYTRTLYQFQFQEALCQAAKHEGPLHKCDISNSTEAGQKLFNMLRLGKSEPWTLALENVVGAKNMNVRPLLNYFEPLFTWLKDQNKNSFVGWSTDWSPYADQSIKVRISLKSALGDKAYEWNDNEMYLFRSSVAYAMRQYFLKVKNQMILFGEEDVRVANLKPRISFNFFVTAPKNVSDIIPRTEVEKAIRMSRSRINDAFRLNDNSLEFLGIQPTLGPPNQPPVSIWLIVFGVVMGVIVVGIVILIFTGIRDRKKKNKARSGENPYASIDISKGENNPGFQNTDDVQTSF

For the compound `C[C@H]1[C@H](N2CCSCC2)O[C@@H]2O[C@@]3(C)CC[C@H]4[C@H](C)CC[C@@H]1[C@@]24OO3` [Artemiside], on ACE2 (setting [1]), the kon was 4290 M⁻¹ s⁻¹. Also, the Kd on ACE2 (bio-layer interferometry) is 124 µM. Also, the koff on ACE2 (setting [2]) is 0.533 s⁻¹. Besides, on SARS-CoV-2 RBD peptide, the “interaction with the RBD (result in words)” value (shortened to “interaction with the RBD”) is listed as “No interaction”.
As for `OC(c1cc(C(F)(F)F)nc2c(C(F)(F)F)cccc12)C1CCCCN1` (stereo not shown) [Mefloquine], the koff on ACE2 is 0.0312 s⁻¹; at SARS-CoV-2 RBD peptide it was 0.861 s⁻¹. The kon on ACE2 came out at 716 M⁻¹ s⁻¹; at SARS-CoV-2 RBD peptide, 142 M⁻¹ s⁻¹. This compound also returned a Kd at SARS-CoV-2 RBD peptide (RBD KD (M)) of 0.00605 M.
As for `COc1cc(/C=C/C(=O)CC(=O)/C=C/c2ccc(O)c(OC)c2)ccc1O` [Curcumin], the kon at ACE2 (setting [1]) was 600 M⁻¹ s⁻¹. Further, the Kd on ACE2 (bio-layer interferometry) came out at 20.3 µM. The koff at ACE2 (setting [2]) is 0.0122 s⁻¹. Moreover, at SARS-CoV-2 RBD peptide, the “interaction with the RBD” value was “No interaction”.
As to `C[C@H]1[C@H](N2CCS(=O)(=O)CC2)O[C@@H]2O[C@@]3(C)CC[C@H]4[C@H](C)CC[C@@H]1[C@@]24OO3` [Artemisone], the kon at ACE2 (setting [1]) stood at 971 M⁻¹ s⁻¹; on SARS-CoV-2 RBD peptide, 8.4e+07 M⁻¹ s⁻¹. Also, the values for the Kd at ACE2 (bio-layer interferometry), on SARS-CoV-2 RBD peptide (KD for RBD) and at SARS-CoV-2 RBD peptide (RBD KD (M)) were 681 µM, 3.6e-07 M and 3.63e-07 M, respectively. Further, the koff at ACE2 (setting [2]) is 0.661 s⁻¹. Further, the IC50 at binding of RBD to ACE2 came to 63.1 ± 9.63 µM.
On to `C=C[C@H]1C[N@@]2CC[C@H]1C[C@H]2[C@H](O)c1ccnc2ccc(OC)cc12` [Quinine], for which the kon at ACE2 (setting [1]) is 877 M⁻¹ s⁻¹. Further, at ACE2 (bio-layer interferometry), the Kd came to 9.35 µM. At ACE2 (setting [2]), the koff was 0.00819 s⁻¹. For the same compound, on SARS-CoV-2 RBD peptide, the “interaction with the RBD” value is “No interaction”.
Take `COc1ccc2nc3cc(Cl)ccc3c(Nc3cc(CN4CCCC4)c(O)c(CN4CCCC4)c3)c2n1` [Pyronaridine]: the results for the kon on ACE2 (setting [1]) and on SARS-CoV-2 RBD peptide were 584 M⁻¹ s⁻¹ and 598 M⁻¹ s⁻¹, respectively. The Kd on ACE2 (bio-layer interferometry) amounted to 51.3 µM; on SARS-CoV-2 RBD peptide (KD for RBD), 5.7e-05 M; at SARS-CoV-2 RBD peptide (RBD KD (M)) it was 5.68e-05 M. For the same compound, the figures for the koff at ACE2 (setting [2]) and at SARS-CoV-2 RBD peptide were 0.0299 s⁻¹ and 0.0339 s⁻¹, respectively. Besides, on binding of RBD to ACE2, the IC50 was 49.7 ± 4.19 µM.
As to `C[C@H]1[C@H](OC(=O)CCC(=O)O)O[C@@H]2O[C@@]3(C)CC[C@H]4[C@H](C)CC[C@@H]1[C@@]24OO3` [Artesunate], on ACE2, the koff came out at 0.0907 s⁻¹ and the kon worked out at 1290 M⁻¹ s⁻¹. Moreover, the “interaction with the RBD” value on SARS-CoV-2 RBD peptide is recorded as “No interaction”.
The compound `CCN(CC)Cc1cc(Nc2ccnc3cc(Cl)ccc23)ccc1O` [Amodiaquine] yielded a Kd at ACE2 (bio-layer interferometry) of 31.3 µM. This lies in the double-digit micromolar range.
The same measure, in the same setting: the same measure for `CN(C)c1ccc2nc3ccc(=[N+](C)C)cc-3sc2c1` [Methylene blue]: 475 µM.
